Bounds are passed on as bounds.

T2 sequence (P35408 whole entry): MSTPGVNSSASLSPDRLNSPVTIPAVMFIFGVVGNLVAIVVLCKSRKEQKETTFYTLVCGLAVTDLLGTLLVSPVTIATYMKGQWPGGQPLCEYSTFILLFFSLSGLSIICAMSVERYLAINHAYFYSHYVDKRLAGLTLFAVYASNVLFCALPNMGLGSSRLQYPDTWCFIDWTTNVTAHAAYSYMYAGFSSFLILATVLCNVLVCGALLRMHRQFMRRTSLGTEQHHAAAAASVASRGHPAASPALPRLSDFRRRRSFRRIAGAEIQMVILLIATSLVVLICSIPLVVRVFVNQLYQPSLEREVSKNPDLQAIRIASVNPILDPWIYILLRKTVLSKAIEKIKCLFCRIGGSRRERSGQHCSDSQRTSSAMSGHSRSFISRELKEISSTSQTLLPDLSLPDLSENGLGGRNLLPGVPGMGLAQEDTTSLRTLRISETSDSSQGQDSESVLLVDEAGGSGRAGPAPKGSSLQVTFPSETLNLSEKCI

The target of the first assay is T1, EP2 (Homo sapiens, UniProt P43116). Kind of assay: EP2 cAMP functional assay. It is filed as cell-based.
T1 sequence (P43116 whole entry): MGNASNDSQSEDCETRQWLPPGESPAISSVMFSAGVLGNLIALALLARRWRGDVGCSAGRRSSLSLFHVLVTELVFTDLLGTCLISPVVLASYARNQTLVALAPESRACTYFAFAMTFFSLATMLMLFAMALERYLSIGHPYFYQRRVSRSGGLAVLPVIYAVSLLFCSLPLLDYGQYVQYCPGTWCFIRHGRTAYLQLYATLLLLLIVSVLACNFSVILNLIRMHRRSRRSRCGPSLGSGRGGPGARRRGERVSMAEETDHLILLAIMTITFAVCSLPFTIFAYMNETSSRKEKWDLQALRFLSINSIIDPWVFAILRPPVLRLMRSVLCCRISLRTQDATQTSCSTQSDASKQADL
Settings: not given
`O=C(O)c1ccc(CCCN2C(=O)CC[C@@H]2CC[C@@H](O)Cc2cccc(C(F)(F)F)c2)s1` [Compound 4]: the EC50 worked out at 71 nM.
Still for that read-out and setting: the same measure for `O=C(O)c1ccc(CC2Sc3c(Cl)cccc3N(Cc3ccccc3C(F)(F)F)C2=O)cc1` (stereo not drawn) [Compound 5]: 1.9 nM; for `O=C(O)CCCCCC[C@H]1C(=S)CCC[C@@H]1CCC(O)Cc1ccccc1` (stereo partly drawn) [Compound 1]: over 10000 nM.
In turn, `CC1(C)C(=O)[C@H](C/C=C\CCCC(=O)O)[C@@H](/C=C/[C@H](O)CCc2sc3ccccc3c2Cl)[C@@H]1O` [Compound 2] gave an EC50 of over 10000 nM.

The target in a further assay is T1, EP2. Kind of assay: EP2 binding assay (Ki).
Settings: not given
Molecule `O=C(O)c1ccc(CCCN2C(=O)CC[C@@H]2CC[C@@H](O)Cc2cccc(C(F)(F)F)c2)s1` [Compound 4] gave an IC50 of 4650 nM.
Regarding `O=C(O)c1ccc(CC2Sc3c(Cl)cccc3N(Cc3ccccc3C(F)(F)F)C2=O)cc1` (stereo not drawn) [Compound 5], the IC50 was determined as 1 nM.
Same read-out and setting: the result for `O=C(O)CCCCCC[C@H]1C(=S)CCC[C@@H]1CCC(O)Cc1ccccc1` (stereo partly drawn) [Compound 1] reads over 10000 nM.
Turning to `CCCCC[C@H](O)c1ccc(N2C(=O)CC[C@@H]2CCCc2ccc(C(=O)O)s2)cc1` [Compound 3], the IC50 was 21 nM.

The next assay addresses T2, EP4 (Homo sapiens, UniProt P35408). Description: EP4 cAMP functional assay. It is filed as cell-based.
Settings: not given
`O=C(O)c1ccc(CC2Sc3c(Cl)cccc3N(Cc3ccccc3C(F)(F)F)C2=O)cc1` (stereo not drawn) [Compound 5] yielded an EC50 of 4 nM.
Same read-out and setting: the result for `O=C(O)CCCCCC[C@H]1C(=S)CCC[C@@H]1CCC(O)Cc1ccccc1` (stereo partly drawn) [Compound 1] reads 0.9 nM; that for `CC1(C)C(=O)[C@H](C/C=C\CCCC(=O)O)[C@@H](/C=C/[C@H](O)CCc2sc3ccccc3c2Cl)[C@@H]1O` [Compound 2], 0.3 nM.
On the same count and under the same terms, the same measure for `CCCCC[C@H](O)c1ccc(N2C(=O)CC[C@@H]2CCCc2ccc(C(=O)O)s2)cc1` [Compound 3]: over 10000 nM.

A further assay concerns the target T2, EP4. Description: EP4 binding assay (Ki).
Settings: not given
The molecule `O=C(O)c1ccc(CC2Sc3c(Cl)cccc3N(Cc3ccccc3C(F)(F)F)C2=O)cc1` (stereo not drawn) [Compound 5] showed an IC50 of 0.3 nM.
Same read-out and setting: the same measure for `O=C(O)CCCCCC[C@H]1C(=S)CCC[C@@H]1CCC(O)Cc1ccccc1` (stereo partly drawn) [Compound 1]: 81 nM.
Consider `CC1(C)C(=O)[C@H](C/C=C\CCCC(=O)O)[C@@H](/C=C/[C@H](O)CCc2sc3ccccc3c2Cl)[C@@H]1O` [Compound 2], for which the IC50 stood at 7 nM.

Another assay has as its system incisional wounds. Description: Incisional skin wound model and assessment. It is filed as in vivo, Sprague-Dawley rats. The note with it: rats, Day 7, topical 0.004% twice daily for 5 days, drug-treated, scale of 0 to 6, higher = severer scar. An excerpt: Sprague-Dawley rats at 180-200 gram were anesthetized with isoflourane. After shaving, 2-cm long incisions were made on the left and right side of the back, reaching the deep fascia on the back skin of rats under sterile conditions. Incisional wounds were immediately closed with 4.0 sutures, and then topically treated with a vehicle or test drugs at 0.004% twice daily for 5 days. The vehicle used here contains ethanol 30%, propylene glycol 12%, dipropylene glycol 5%, benzyl alcohol 5%, glycerol 3% and normal saline 45%. Wounds were photographed on day 7. All photos were coded and scored by lay people. Evaluation of wound sites was based on scar width, palpability (elevation) of wound areas, and general progress in healing, using a scale of 0 to 6; the severer a scar, the higher the score. Each scar was divided into 4 regions, separated by suture sites; each quarter was scored independently; the mean of the 4 part scores was recorded as the overall scar score of each incision site.
In the case of `O=C(O)c1ccc(CCCN2C(=O)CC[C@@H]2CC[C@@H](O)Cc2cccc(C(F)(F)F)c2)s1` [Compound 4], the “Scar Scores” value came out at 0.76 ± 0.07.
With `O=C(O)c1ccc(CC2Sc3c(Cl)cccc3N(Cc3ccccc3C(F)(F)F)C2=O)cc1` (stereo not drawn) [Compound 5], the “Scar Scores” value came out at 0.56 ± 0.07.
On the same count and under the same terms, the result for `CC1(C)C(=O)[C@H](C/C=C\CCCC(=O)O)[C@@H](/C=C/[C@H](O)CCc2sc3ccccc3c2Cl)[C@@H]1O` [Compound 2] reads 0.60 ± 0.1.

One may read the EC50 as the concentration that produces a half-maximal response. For orientation: IC50 means the concentration that gives 50% inhibition.

(Values after patent publication US20170143733A1, “COMPOUNDS AND METHODS FOR SKIN REPAIR” (Allergan, Inc., priority 2012, published 2017).)
